Experimental findings from paper PMC11396667, “Design, Synthesis, and Anticancer and Antibacterial Activities of Quinoline-5-Sulfonamides” (Molecules, 2024) are described below.

The structures appear in SMILES notation. Converted amounts (≈) assume the structure as drawn. Where only a bound is given, the exact number is not on record here.

Test [1] relates to methicillin-resistant S. aureus SA 3202. Put plainly: MBC, agar aliquot subculture method, MRSA1. It is filed as cell-based. The note with it: Staphylococcus aureus; 99.9% decrease in CFU, 24 h, 37 °C. An excerpt: (§1) The activities of the individual derivatives were expressed as minimum inhibitory concentrations (MICs) and minimum bactericidal concentrations (MBCs) and are shown in Table 3 together with the values of the antibiotics used as standards for comparison. […] MBC values of bactericidal compounds are indicated in bold in Table 3.
(§2) For the above-mentioned strains/isolates, the agar aliquot subculture method was used as a test for bactericidal agents. After the MIC value determination, the inoculum was transferred to CaMH (Oxoid) for staphylococci, and BHI (Oxoid) for enterococci medium using a multipoint inoculator. The plates were incubated in a thermostat at 37 °C for 24 h. The lowest concentration of test compound at which ≤5 colonies were obtained was then evaluated as MBC, corresponding to a 99.9% decrease in CFU relative to the original inoculum.

The test system of test [2] is Enterococcus faecalis ATCC 29212. The experiment in a line: MIC, microtitration broth method, EF. It is filed as cell-based. The note with it: ATCC29212, 24 h, 37 °C, BHI broth. An excerpt:
(§3) Since there is a general decrease in immunity during the treatment of oncological patients, i.e., patients are more susceptible to infectious diseases, it is advantageous if anticancer agents show antimicrobial properties at the same time. Therefore, the effects of the compounds were also investigated against Gram-positive bacteria. For this purpose, the susceptible collection strains of aerobic Staphylococcus aureus ATCC 29213 and facultatively aerobic Enterococcus faecalis ATCC 29212 and resistant clinical isolates of methicillin-resistant S. aureus (MRSA) SA 3202, SA 630 carrying the mecA gene, and vancomycin-resistant isolates of E. faecalis (VRE) 342B, 368, and 725B carrying the vanA gene were selected. Thus, the selection of the studied bacterial strains was adopted following the CLSI ([…]) international reference methodologies.
(§4) The in vitro antibacterial activity of the synthesized compounds was evaluated against representatives of multidrug-resistant bacteria, […] clinical isolates of methicillin-resistant S. aureus: clinical isolates of human origin, MRSA SA 3202, and MRSA SA 630 (National Institute of Public Health, Prague, Czech Republic), carrying the mecA gene. These two clinical isolates were classified as vancomycin-susceptible (but with a higher MIC of vancomycin equal to 2 μg/mL (VA2-MRSA). Vancomycin- and methicillin-susceptible S. aureus ATCC 29213 and vancomycin-susceptible Enterococcus faecalis ATCC 29212, obtained from the American Type Culture Collection, were used as the reference and quality control strains. Three vanA gene-carrying vancomycin-resistant isolates of E. faecalis (VRE 342B, VRE 368, VRE 725B) (Department of Infectious Diseases and Microbiology, Faculty of Veterinary Medicine, University of Veterinary Sciences Brno, Czech Republic) were provided by Oravcova et al..
(§5) The minimum inhibitory concentrations (MICs) were evaluated by the microtitration broth method according to the CLSI, with some modifications. The compounds were dissolved in DMSO (Sigma, St. Louis, MO, USA) to obtain a concentration of […] and diluted in a microtitration plate in an appropriate medium, i.e., Cation-Adjusted Mueller–Hinton Broth (CaMH, Oxoid, Basingstoke, UK) for staphylococci, and Brain Heart Infusion Broth (BHI, Oxoid) for enterococci to reach the final concentration of 256–0.125 µg/mL. Microtiter plates were inoculated with test microorganisms so that the final concentration of bacterial cells was 10^5. Ampicillin, oxacillin, and ciprofloxacin (Sigma) were used as reference drugs. A drug-free control and a sterility control were included. The plates were incubated for 24 h at 37 °C for staphylococci and enterococci. […] The experiments were repeated three times.

Test [3] relates to methicillin-resistant S. aureus SA 3202. The experiment in a line: MIC, microtitration broth method, MRSA1. The following applies: Staphylococcus aureus; 24 h, 37 °C, CaMH broth. It is filed as cell-based.
Excerpt: as §3, §4, §5

Another test deals with S. aureus ATCC 29213. Put plainly: MTT assay of bacterial respiratory activity. It is filed as cell-based, Staphylococcus aureus. The following applies: for S. aureus Respiration Inhibition: 24 h, at the lowest multiple of MIC giving at least 70% inhibition; for Conc.: lowest multiple of MIC with at least 70% inhibition of respiratory activity / Conc.: the same concentration as multiple of MBC: S. aureus ATCC 29213. The text has this:
The MTT assay can be used to assess cell growth by measuring respiration. Bacterial cell respiratory activity (which is ultimately reflected in their viability) of less than 70% after exposure to the MIC values for each test compound is considered as a positive result for this test. This low level of cellular oxidative metabolism indicates inhibition of cell growth by inhibition of respiration. The lowest multiples of the MIC values by which inhibition of S. aureus ATCC 29213 viability [%] greater than 70% was achieved are shown in Table 4. […] Therefore, the antibacterial activity of the discussed compounds cannot be explained solely on the basis of respiration inhibition, so it is very difficult to draw a conclusion regarding the actual mechanism of action, since 8-HQs are multi-target agents, i.e., they affect several different targets at once (as discussed in the section dedicated to anticancer activity), which subsequently leads to the death of the treated resistant microorganisms.
Compounds were prepared as previously stated and diluted in CaMH broth for S. aureus to achieve the desired final concentrations. S. aureus bacterial suspension in sterile distilled water at 0.5 McFarland was diluted 1:3. Inocula were added to each well by multi-inoculator. Diluted mycobacteria in broth free from inhibiting compounds were used as the growth control. All compounds were prepared in duplicate. Plates were incubated at 37 °C for 24 h for S. aureus. After the incubation period, 10% well volume of MTT (3-(4,5-dimethylthiazol-2-yl)-2,5-diphenyltetrazolium bromide) reagent (Sigma) was mixed into each well and incubated at 37 °C 1 h for S. aureus. Then, 100 µL of 17% sodium dodecyl sulphate in 40% dimethylformamide was added to each well. The plates were read at 570 nm. The absorbance readings from the cells grown in the presence of the tested compounds were compared with uninhibited cell growth to determine the relative percent inhibition. The percent inhibition was determined through MTT assay. The percent viability is calculated through the comparison of a measured value and that of the uninhibited control: % viability = OD570E/OD570P × 100, where OD570E is the reading from the compound-exposed cells, while OD570P is the reading from the uninhibited cells (positive control). Cytotoxic potential is determined by a percent viability of <70% [81, 82].
A general note: Tetrazolium dyes change colour on reduction, which living cells bring about.

Test [4] has as its system Enterococcus faecalis ATCC 29212. Put plainly: MBC, agar aliquot subculture method, EF. The class given is cell-based. The note with it: ATCC29212, 99.9% decrease in CFU, 24 h, 37 °C.
Excerpt: as §1, §2

The test system of test [5] is vancomycin-resistant E. faecalis VRE 342B. The experiment in a line: MIC, microtitration broth method, VRE1. The class given is cell-based. The note with it: Enterococcus faecalis, 24 h, 37 °C, BHI broth.
Excerpt: as §3, §4, §5

Test [6] relates to methicillin-resistant S. aureus SA 630. Put plainly: MIC, microtitration broth method, MRSA2. It is filed as cell-based. The note with it: Staphylococcus aureus; 24 h, 37 °C, CaMH broth.
Excerpt: as §3, §4, §5

A word on the MBC: it is the smallest concentration meeting the test's criterion for killing. Broadly, the MIC is the smallest concentration in the dilution series that meets the test's criterion for growth inhibition. Lower therefore signals a more susceptible organism. With `C#CCNS(=O)(=O)c1ccc(O)c2ncccc12` [3a, 8-Hydroxy-N-(prop-2-yn-1-yl)quinoline-5-sulfonamide], the minimum bactericidal concentration (MBC) in test [1] was 122 µM (≈ 32 µg/mL); in test [4], above 977 µM. The MIC came out at 977 µM (≈ 256 µg/mL) in test [2], 122 µM (≈ 32 µg/mL) in test [3], 977 µM (≈ 256 µg/mL) in test [5] and 244 µM (≈ 64 µg/mL) in test [6]. The “S. aureus Respiration Inhibition” value in the test with S. aureus ATCC 29213 came to 92.5%. Besides, in the test on S. aureus ATCC 29213, the “Conc.: lowest multiple of MIC with at least 70% inhibition of respiratory activity” value was 1× MIC (1× MBC). In addition, in the test with S. aureus ATCC 29213, the “Conc.: the same concentration as multiple of MBC” value (“Conc.: the same concentration” below) is on record as 1× MIC (1× MBC).
Consider `C#CC(C)(C)NS(=O)(=O)c1ccc(O)c2ncccc12` [3b, 8-Hydroxy-N-(1,1-dimethylprop-2-yn-1-yl)quinoline-5-sulfonamide], for which the values for the minimum bactericidal concentration (MBC) in test [1] and in test [4] were 110 µM (≈ 31.9 µg/mL) and above 883 µM, respectively. Also, the minimal inhibitory concentration (MIC) in test [2] is 883 µM (≈ 256 µg/mL); in test [3], 55.2 µM (≈ 16 µg/mL); in test [5], 883 µM (≈ 256 µg/mL); in test [6], 110 µM (≈ 31.9 µg/mL). Besides, the “S. aureus Respiration Inhibition” value in the test with S. aureus ATCC 29213 is recorded as 94.4%. Besides, the “Conc.: lowest multiple of MIC with at least 70% inhibition of respiratory activity” value in the test with S. aureus ATCC 29213 is on record as 2× MIC (2× MBC). In addition, in the test on S. aureus ATCC 29213, the “Conc.: the same concentration” value was 2× MIC (2× MBC).
With `C#CCN(C)S(=O)(=O)c1ccc(O)c2ncccc12` [3c, 8-Hydroxy-N-methyl-N-(prop-2-yn-1-yl)quinoline-5-sulfonamide], the results for the MBC in test [1] and in test [4] were 29 µM (≈ 8.01 µg/mL) and above 464 µM, respectively. In addition, the MIC in test [2] was determined as 464 µM (≈ 128 µg/mL); in test [3] it was 29 µM (≈ 8.01 µg/mL); in test [5], 464 µM (≈ 128 µg/mL); in test [6], 29 µM (≈ 8.01 µg/mL). In the test with S. aureus ATCC 29213, the “S. aureus Respiration Inhibition” value was found to be 95.2%. Further, in the test on S. aureus ATCC 29213, the “Conc.: lowest multiple of MIC with at least 70% inhibition of respiratory activity” value was 2× MIC (2× MBC). For the same compound, the “Conc.: the same concentration” value in the test on S. aureus ATCC 29213 is recorded as 2× MIC (2× MBC).
With `C#CCOc1ccc(NS(=O)(=O)c2ccc(O)c3ncccc23)cc1` [3d, 8-Hydroxy-N-[4-(prop-2-yn-1-yloxy)phenyl]quinoline-5-sulfonamide], the figures for the MBC in test [1] and in test [4] were 45.2 µM (≈ 16 µg/mL) and 362 µM (≈ 128 µg/mL), respectively. Further, the minimum inhibitory concentration (MIC) was 362 µM (≈ 128 µg/mL) in test [2], 45.2 µM (≈ 16 µg/mL) in test [3], 362 µM (≈ 128 µg/mL) in test [5] and 90.4 µM (≈ 32 µg/mL) in test [6]. For the same compound, the “S. aureus Respiration Inhibition” value with S. aureus ATCC 29213 stood at 73.0%. Moreover, the “Conc.: lowest multiple of MIC with at least 70% inhibition of respiratory activity” value in the test with S. aureus ATCC 29213 was 1× MIC (1× MBC). Besides, the “Conc.: the same concentration” value in the test on S. aureus ATCC 29213 was 1× MIC (1× MBC).
Consider `C#CCOc1cccc(NS(=O)(=O)c2ccc(O)c3ncccc23)c1` [3e, 8-Hydroxy-N-[3-(prop-2-yn-1-yloxy)phenyl]quinoline-5-sulfonamide], for which the MBC was 90.4 µM (≈ 32 µg/mL) in test [1] and 362 µM (≈ 128 µg/mL) in test [4]. The minimum inhibitory concentration (MIC) came to 362 µM (≈ 128 µg/mL) in test [2], 45.2 µM (≈ 16 µg/mL) in test [3], 362 µM (≈ 128 µg/mL) in test [5] and 90.4 µM (≈ 32 µg/mL) in test [6]. Also, in the test with S. aureus ATCC 29213, the “S. aureus Respiration Inhibition” value is recorded as 73.7%. In addition, the “Conc.: lowest multiple of MIC with at least 70% inhibition of respiratory activity” value in the test with S. aureus ATCC 29213 is 1× MIC (1× MBC). The “Conc.: the same concentration” value in the test on S. aureus ATCC 29213 is listed as 1× MIC (1× MBC).
For `C#CCOc1ccccc1NS(=O)(=O)c1ccc(O)c2ncccc12` [3f, 8-Hydroxy-N-[2-(prop-2-yn-1-yloxy)phenyl]quinoline-5-sulfonamide], the MBC in test [1] turned out to be 90.4 µM (≈ 32 µg/mL); in test [4], 362 µM (≈ 128 µg/mL). In addition, the MIC turned out to be 362 µM (≈ 128 µg/mL) in test [2], 45.2 µM (≈ 16 µg/mL) in test [3], 362 µM (≈ 128 µg/mL) in test [5] and 90.4 µM (≈ 32 µg/mL) in test [6]. Moreover, in the test with S. aureus ATCC 29213, the “S. aureus Respiration Inhibition” value amounted to 81.6%. Moreover, the “Conc.: lowest multiple of MIC with at least 70% inhibition of respiratory activity” value with S. aureus ATCC 29213 was 1× MIC (1× MBC). Besides, the “Conc.: the same concentration” value with S. aureus ATCC 29213 was 1× MIC (1× MBC).
